For experiment [1], the target named is IGRP206-214/H-2K^d on antigen-presenting cells (mouse) (UniProt P01902). In words: cell-based or functional assay.
Experiment [2] addresses T1, H-2Db (Mus musculus, UniProt P01899).
T1 sequence (P01899 25-362): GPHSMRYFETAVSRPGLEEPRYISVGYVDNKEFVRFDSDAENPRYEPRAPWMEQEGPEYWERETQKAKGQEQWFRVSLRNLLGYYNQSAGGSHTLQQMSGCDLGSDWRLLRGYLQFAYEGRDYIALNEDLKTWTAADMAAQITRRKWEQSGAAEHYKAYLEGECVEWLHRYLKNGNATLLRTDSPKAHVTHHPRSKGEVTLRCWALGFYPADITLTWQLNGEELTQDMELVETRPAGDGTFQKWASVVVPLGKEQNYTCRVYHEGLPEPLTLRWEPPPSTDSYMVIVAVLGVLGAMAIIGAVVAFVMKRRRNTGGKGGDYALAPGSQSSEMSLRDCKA
T1 sequence (P01887 21-119 partner): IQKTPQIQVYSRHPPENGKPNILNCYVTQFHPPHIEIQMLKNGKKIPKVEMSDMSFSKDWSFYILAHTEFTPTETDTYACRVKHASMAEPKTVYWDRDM
In words: Presentation of IGRP peptide by MHC class I molecule.

Experiment [3] relates to T-cells from the islets of 12-week-old female NOD mice. In words: Interferon-γ ELISpot of T-cells cultured from NOD islets (Example 4). The class given is cell-based, mouse. As to the method: Using procedures described in Example 1, we have cultured T-cells from the islets of 12-week-old female NOD mice. T-cells were assayed for recognition of several different IGRP peptides by interferon-γ ELISpot.

For experiment [4], the system named is AI12.B1.3 TCR. In words: TCR transfectant peptide recognition, IL-2 release (58 α−β− cells, RMA-S/K^d presenters). The class given is cell-based, mouse. The settings on record: FIG. 2. The source says: (§1) T cell receptors from the previously isolated NOD-derived β cell-autoreactive class I MHC-restricted T cell clones AI4, AI12.B1.1, AI12.B1.2, AI12.B1.3, AI15.A10, AI15.F5 (DiLorenzo et al., 1998), and 8.3 (Verdaguer et al., 1997) were expressed in the TCR^− T cell hybridoma 58α^−β^− (engineered to express the TCR ζ chain and CD8αβ and provided by H.-C. Chang, Dana Farber, Boston, Mass., USA) as described (Serreze et al., 2001). TCR expression was verified by flow cytometric analysis of growing clones using an antibody to CD3ε (145-2C11). RMA-S/K^d cells incubated overnight at 28° C. were used to present exogenously added synthetic peptides at concentrations as indicated in the figures. Peptide recognition by the TCR transfectants was measured by IL-2 production as previously described (Serreze et al., 2001).

For experiment [5], the system named is AI15.F5 TCR. The description is as above. It is filed as cell-based, mouse. The settings on record: FIG. 2.
Source text: as §1

The test system of experiment [6] is 8.3-CD8+ T-cells. In words: Proliferation and cytokine secretion of naive splenic 8.3-CD8+ T-cells with peptide-pulsed NOD splenocytes. It is filed as cell-based, mouse. The settings on record: FIG. 5, peptide 0.01-1 μM. Here is the method: Naïve or NRP-A7-differentiated (see below) splenic CD8+ T-cells from 8.3-NOD mice (2×10^4/well) were incubated, in duplicate, with peptide-pulsed (0.01, 0.1 and 1 μM), γ-irradiated (3,000 rad) NOD splenocytes (10^5/well) for 3 days at 37° C. in 5% CO2. Cultures were pulsed with 1 μCi of (^3H)-thymidine during the last 18 hours of culture and harvested.
(§2) Naïve splenic CD8+ T-cells from 8.3-NOD mice (2×10^4/well) were incubated with peptide-pulsed (0.001, 0.01, 0.1, 1 and/or 10 μM) γ-irradiated NOD splenocytes (10^5/well) in 96-well plates for 48 hours at 37° C. Short-term islet-derived T-cell lines from peptide-treated or unmanipulated NOD mice (adjusted at 2×10^4 CD8+ T-cells/well) were tested the same way, but using 10 μM of peptide. The supernatants (100 μl/well) were assayed in duplicate for IL-2, IL-4, and/or IFN-γ content by ELISA using commercially available kits (Genzyme Diagnostics, Cambridge, Mass.).

Experiment [7] has as its system 8.3-CD8+ splenocytes of 8.3-NOD mice. In words: Tolerogenic activity of APLs in 8.3-NOD mice. The settings on record: single injection 100 μg in PBS, analysis 7 days later. It is filed as in vivo, mouse. As to the method: (§3) Cohorts of 3-to-4 week-old female NOD mice were injected with 1-100 μg of peptide in PBS intraperitoneally. This was repeated every 2 weeks until the 7-8th week, and every 3 weeks thereafter. Mice were monitored for development of hyperglycemia until at least the 28th week of age. The 8.3-CD8+ T-cell tolerogenic activity of APLs was determined by treating 8-15 wk-old 8.3-NOD mice with one i.p. injection of 100 μg of peptide. […] Mice were sacrificed a week after treatment, and their spleens analyzed for presence of 8.3-CD8+ T-cells by flow cytometry.

Experiment [8] has as its system female NOD mice. In words: Repeated peptide treatment of female NOD mice, diabetes development and islet-associated CD8+ T-cells. It is filed as in vivo, mouse. As to the method:
as §3
We next investigated whether the anti-diabetogenic activity of the above APLs was a function of “avidity”, as defined not only by the affinity of individual peptide/MHC complexes for specific TCRs, but also by the absolute number of peptide/MHC complexes that are available for recognition (i.e. dose of peptide). This was done by treating cohorts of female NOD mice with repeated injections of TUM (negative control), NRP-I4, NRP-A7 and NRP-V7 (in PBS) over a wide dose range, and by following the mice for development of diabetes (FIG. 7A, top). Starting at 3-4 weeks of age, mice received one injection of peptide i.p. every 2 (first three doses) or 3 weeks after initiation of treatment. Mice were sacrificed at diabetes onset or at the end of the follow-up period (28-32 weeks), to investigate the effects of treatment on the size and tetramer-binding avidity of the islet-associated IGRP206-214-reactive CD8+ T-cell subpopulation (FIG. 7A, bottom).

The subject of experiment [9] is CD8+ cells derived from pancreatic islets of wild-type NOD mice. In words: Tetramer staining and avidity of NOD islet-derived CD8+ T-cells (Example 3). It is filed as cell-based, mouse. The settings on record: FIG. 9B, at least some animals. As to the method:
Tetramers were prepared and used as described in (Amrani et al., 2000). Hand-picked pancreatic islets from individual mice were cultured in complete media supplemented with 0.5 U/ml of Takeda rhIL-2 for 7-9 days. T-cells (10^6 per 20 μl) were then stained for 45 minutes on ice in 20 μl of wash media (0.2% sodium bicarbonate, 0.1% sodium azide and 2% FBS in RPMI-1640) containing anti-CD8-FITC (clone YTS169.4; 0.5 μg) and tetramer (85.5 nM). After washing, the cells were resuspended in wash media and analyzed with a flow cytometer (Becton Dickinson). For the analysis of tetramer staining at equilibrium, T-cells were stained for 2 hours at room temperature with 20 μl of wash media (0.2% sodium bicarbonate, 0.1% sodium azide and 2% FBS in RPMI-1640) containing anti-CD8α-FITC (clone YTS169.4; 0.5 μg) and different concentrations of tetramers (8.55, 17.1, 42.75 and 85.5 nM). After washing, cells were resuspended in 100 μl of wash media, fixed in 0.4% paraformaldehide and analyzed with a flow cytometer. The apparent Kd values were determined by plotting the negative reciprocal of the slope of the line fit to Scatchard plots of fluorescence units (median of CD8+ population tetramer staining)/nM versus fluorescence units.

In experiment [10] the test system is CD8+ cells propagated from islets of NOD mice. In words: IFN-γ secretion by islet-derived CD8+ T-cells in response to IGRP peptides. The class given is cell-based, mouse. The settings on record: peptide 10 μM, pre-diabetic or acutely diabetic NOD mice.
Source text: Islet-derived CD8+ T-cells from peptide-treated or unmanipulated NOD mice were generated by culturing pancreatic islets in complete media (CM: RPMI 1640 media containing 10% fetal bovine serum), containing 0.5 U/ml Takeda rhIL-2 (10-50 islets/well in 24-well plates). The in vivo-activated, IL-2R+ lymphocytes migrating from islets into the culture media were used in functional assays within 6-9 days of islet isolation (Amrani et al., 2000; Anderson et al., 1999).
as §2

Five substances from patent US8758767B2, “Antigens targeted by prevalent pathogennic T cells in type 1 diabetes and uses thereof” (Albert Einstein College of Medicine of Yeshiva University, priority 2003, dated 2014) can be followed below.

In experiment [1], 8.3 T cell receptor (TCR) showed a half-maximal activity, 51Cr-release assay with 8.3 CTL on peptide-pulsed RMA-S/K^d cells of 50 µM.

CALTSLTTM [IGRP296-304]: the “presentation by MHC class I molecule” value in [2] is given as “is presented by the MHC class I molecule H-2Db”.

Regarding FLWSVFWLI [IGRP152-160], the “T-cell reactivity by interferon-γ ELISpot” value in experiment [3] is given as “Reactivity was found”.

Take KYNKANVFL [NRP-V7, reference compound]: in experiment [4], the “recognition by AI12.B1.3 (IL-2 release)” value is “recognized”. In experiment [5], the “recognition by AI15.F5 (IL-2 release)” value is given as “responded”. Besides, the “agonistic activity on 8.3-CD8+ T-cells” value in [6] is “superior agonistic activity”. Also, the “8.3-CD8+ splenocytes after treatment” value in [7] was “fewer 8.3-CD8+ splenocytes”. Further, in [8] (any dose), the anti-diabetogenic activity result is given as “not significantly protective”. For the same substance, in [8] (intermediate doses NRP-A7, high doses NRP-I4, low or high doses NRP-V7, high doses IGRP206-214), the “protection from diabetes by chronic treatment (discussion summary)” value is given as “only afforded marginal protection from disease”. The “NRP-V7-reactive CD8+ cells in the islets” value in experiment [8] (over a range of doses) is listed as “almost completely devoid”.

In the case of “TYYGFLNFM [peptide 39, text numbering of the IGRP library]”, in [9], the “presence of peptide-reactive CD8+ T-cells in islets by tetramers” value is “confirmed the presence”. For the same substance, in experiment [10], the “mice with islet CD8+ T-cells responding to the peptide (IFN-γ secretion)” value is “a significant number of mice also mounted responses”.
